Patent US20180000085A1, “USE OF PICOLINAMIDE COMPOUNDS WITH FUNGICIDAL ACTIVITY” (DOW AGROSCIENCES LLC, priority 2014, published 2018)

Experiments:
Assay type in all cases: in vivo
Zymoseptoria tritici = assay: Leaf blotch of wheat (SEPTTR) disease control on wheat seedlings; parameters: key to SEPTTR 1DP, HV activity at 100 ppm (% control rating) / SEPTTR 3DC, HV activity at 100 ppm (% control rating) / SEPTTR disease control, 1DP / SEPTTR disease control, 3DC / SEPTTR 1DP disease control rating, HV activity / SEPTTR 3DC disease control rating, HV activity / SEPTTR 3DC, LV activity at 125.1 g/H (% Control rating) / SEPTTR 1DP, LV activity at 125.1 g/H (% Control rating) / SEPTTR 1DP disease control rating, LV activity at 125.1 g/H / SEPTTR 3DC disease control rating, LV activity at 125.1 g/H / SEPTTR 3DC disease control rating, HV activity at 100 ppm / SEPTTR 1DP disease control rating, HV activity at 100 ppm / HV activity at 100 ppm SEPTTR 3DC (disease control rating) / HV activity at 100 ppm SEPTTR 1DP (disease control rating) / LV activity at 125.1 g/H SEPTTR 1DP (disease control rating) / LV activity at 125.1 g/H SEPTTR 3DC (disease control rating): A: > 80; B: ≤ 80; C: Not Tested; D: No Activity Observed in the Reported Assay; conditions: low volume application, 125.1 g/H; for SEPTTR 1DP, LV activity at 125.1 g/H (% Control rating): 1 Day Protectant; for SEPTTR 3DC, LV activity at 125.1 g/H (% Control rating): 3 Day Curative; for SEPTTR 1DP disease control rating, LV activity at 125.1 g/H: 1 day protectant; for SEPTTR 3DC disease control rating, LV activity at 125.1 g/H: 3 day curative
Puccinia triticina = assay: Wheat brown rust (PUCCRT) disease control on wheat seedlings; conditions: low volume application, 125.1 g/H; for PUCCRT 1DP, LV activity at 125.1 g/H (% Control rating): 1 Day Protectant; for PUCCRT 3DC, LV activity at 125.1 g/H (% Control rating): 3 Day Curative; for PUCCRT 1DP disease control rating, LV activity at 125.1 g/H: 1 day protectant; for PUCCRT 3DC disease control rating, LV activity at 125.1 g/H: 3 day curative
Phakopsora pachyrhizi = assay: Asian soybean rust (PHAKPA) disease control; parameters: key: A: > 80; B: ≤ 80; C: Not Tested; D: No Activity Observed in the Reported Assay; conditions: 25 ppm; for PHAKPA disease control, 1DP: 1 Day Protectant; for PHAKPA disease control, 3DC: 3 Day Curative

| Structure (SMILES) | SEPTTR 1DP, LV activity at 125.1 g/H (% Control rating) (Zymoseptoria tritici) | SEPTTR 3DC, LV activity at 125.1 g/H (% Control rating) (Zymoseptoria tritici) | PUCCRT 1DP, LV activity at 125.1 g/H (% Control rating) (Puccinia triticina) | PUCCRT 3DC, LV activity at 125.1 g/H (% Control rating) (Puccinia triticina) | PHAKPA disease control, 1DP (Phakopsora pachyrhizi) | PHAKPA disease control, 3DC (Phakopsora pachyrhizi) | SEPTTR 1DP disease control rating, LV activity at 125.1 g/H (Zymoseptoria tritici) | SEPTTR 3DC disease control rating, LV activity at 125.1 g/H (Zymoseptoria tritici) | PUCCRT 1DP disease control rating, LV activity at 125.1 g/H (Puccinia triticina) | PUCCRT 3DC disease control rating, LV activity at 125.1 g/H (Puccinia triticina) |
| --- | --- | --- | --- | --- | --- | --- | --- | --- | --- | --- |
| COc1ccnc(C(=O)N[C@@H](C)C(=O)O[C@@H](C)[C@H](Oc2cccc3ccccc23)C(C)C)c1OCOC(C)=O [Cmpd 621] | B (≤ 80) | A (> 80) | A (> 80) | A (> 80) | A (> 80) | D | – | – | – | – |
| COc1ccnc(C(=O)N[C@@H](C)C(=O)O[C@@H](C)[C@@H](OC)c2ccccc2)c1OCOC(C)=O [Cmpd 886] | – | – | – | – | B (≤ 80) | B (≤ 80) | D | A (> 80) | A (> 80) | A (> 80) |
| COc1ccnc(C(=O)N[C@H](C(=O)O[C@@H](C)[C@H](Oc2cccc(Cl)c2)C(C)C)C(C)C)c1OC(C)=O [Cmpd 569] | B (≤ 80) | A (> 80) | A (> 80) | A (> 80) | A (> 80) | B (≤ 80) | – | – | – | – |
| CCC(CC)[C@@H](OCC1CC1)[C@H](C)OC(=O)[C@H](C)NC(=O)c1nccc(OC)c1OCOC(C)=O [Cmpd 553] | B (≤ 80) | A (> 80) | A (> 80) | A (> 80) | A (> 80) | A (> 80) | – | – | – | – |
| COc1ccnc(C(=O)N[C@@H](C)C(=O)O[C@@H](C)[C@H](Oc2ccc(F)cc2)C2CCCC2)c1OC(C)=O [Cmpd 919] | – | – | – | – | A (> 80) | D | A (> 80) | A (> 80) | A (> 80) | A (> 80) |
| COc1ccnc(C(=O)N[C@@H](C)C(=O)O[C@@H](C)[C@H](Oc2ccccc2)c2ccc(F)cc2)c1OCOC(C)=O [Cmpd 924] | – | – | – | – | A (> 80) | D | A (> 80) | A (> 80) | A (> 80) | A (> 80) |
| CCC(CC)[C@@H](Oc1ccc(F)cc1)[C@H](C)OC(=O)[C@H](C)NC(=O)c1nccc(OC)c1OC(C)=O [Cmpd 598] | A (> 80) | A (> 80) | A (> 80) | A (> 80) | A (> 80) | B (≤ 80) | – | – | – | – |
| CCC(CC)[C@@H](Oc1ccc(Cl)cc1)[C@H](C)OC(=O)[C@H](C)NC(=O)c1nccc(OC)c1OC(C)=O [Cmpd 600] | A (> 80) | A (> 80) | A (> 80) | A (> 80) | B (≤ 80) | B (≤ 80) | – | – | – | – |
| COc1ccnc(C(=O)N[C@@H](C)C(=O)O[C@@H](C)[C@H](Oc2ccccc2Cl)c2ccccc2)c1OCOC(C)=O [Cmpd 639] | B (≤ 80) | A (> 80) | A (> 80) | A (> 80) | A (> 80) | B (≤ 80) | – | – | – | – |
